Measurements as given in patent US6762173B2 (priority 1997, dated 2004).
Where two headings read alike, the source gives them in different places.

What was measured:
Plasmopara viticola [1] = assay: In vivo greenhouse test on downy mildew of grapevine, preventive treatment at 4 days (Example 5); conditions: grapevine Chardonnay, FIG. 2
Protocol: In Vivo Greenhouse Test of the Combination of Compound (I) with Compound (IIA), Propamocarb, on Plasmopara viticola (Downy Mildew of Grapevine) by Preventive Treatment at 4 Days:
A soluble concentrate containing 722 g/l of propamocarb and a 70% dispersible granule of compound (I) are used.
Dilute suspensions corresponding to a spraying volume of 500 l of spraying liquid per ha are prepared from these compositions by dilution with water.
These 2 liquids are mixed together so as to obtain a ratio: compound (I)/propamocarb, equal to: 0.015−0.125−0.5.
Cuttings of grapevine (Vitis vinifera), Chardonnay variety, are cultivated in pots. When these plants are 2 months old, they are treated by spraying with the above liquids, taken individually or as a mixture.
After 4 days, each plant is contaminated by spraying with an aqueous suspension of spores of Plasmopara viticola obtained from sporulated leaves contaminated 7 days beforehand. […]
The results are read 7 days after the contamination, by comparison with the control plants, that is to say untreated but contaminated plants.
The surface area of leaves showing a whitish appearance on their underside, corresponding to attack by the fungus, is assessed visually and the degree of attack is obtained by dividing by the total foliar surface.
The efficacy is then calculated using the Abbott formula and using the result on the control plant. […]

Phytophthora infestans [2] = format: in vivo; conditions: potato Bintje lamellae, preventive 4 days, FIG. 3
Phytophthora infestans [3] = format: in vivo; conditions: potato Bintje, FIG. 1
Phytophthora infestans [4] = format: in vivo; conditions: potato Bintje, FIG. 4
Botrytis cinerea = assay: In vivo greenhouse test against grey rot of grapevine (Example 8); conditions: FIG. 5
Protocol: In Vivo Greenhouse Test of a Composition Comprising Compound (I) and Compound (IIC) (Cyprodinil) Against Grey Rot of Grapevine (Botrytis cinerea):
(§1) A 70% dispersible granule of compound (I) and a 75% dispersible granule of cyprodinil are used.
(§2) Dilute suspensions corresponding to a spraying volume of 1000 l of spraying liquid per ha are prepared from these compositions by dilution with water.
These 2 liquids are mixed together so as to obtain a compound (I)/cyprodinil ratio equal to 0.2.
Grapevine plants (Chardonnay variety) are cultivated in pots. When these plants are 2 months old, they are treated by spraying with a liquid comprising one of the compounds (I) and (IIC), either individually or as a mixture in the ratio indicated above.
After 24 hours, leaves are cut off the treated plants, placed on moistened filter paper in a Petri dish and are contaminated by applying 10 drops of an aqueous suspension of spores (containing 150,000 sp/cm^3) of Botrytis cinerea. […]
For this, the number of drops of Botrytis cinerea suspension from which a grey mark, corresponding to attack by the phytopathogenic fungus, developed is counted for a grapevine leaf. […]
(§3) The efficacy of the treatment (expressed in %) is calculated according to the so-called Abbott formula. […]

Alternaria brassicae = assay: In vivo greenhouse test against Alternaria rot in radish (Example 9); conditions: radish Pernot plantules, contamination 24 hours after treatment, FIG. 6
Protocol: In Vivo Greenhouse Test of a Composition Comprising Compound (I) and Compound (IIC) (Cyprodinil) Against Alternaria Rot in Radish (Alternaria brassicae):
as §1, §2
These 2 liquids are mixed together so as to obtain a compound (I)/cyprodinil ratio equal to 0.2−0.5−1.
Radish plantules (Pernot variety) are cultivated in pots. When these plantules have reached the 2-leaf cotyledon stage, they are treated by spraying with a liquid comprising compounds (I) and (IIC), either individually or as a mixture in the ratios indicated above.
24 hours after treatment, contamination is carried out by spraying with an aqueous suspension of spores (containing 40,000 sp/cm^3) of Alternaria brassicae.
After this contamination, the treated and contaminated plantules are placed for 10 days at about 20° C. in an atmosphere of saturated humidity. […]
For this, the percentage of attack of the cotyledon leaves by the fungus is assessed visually, the said attack being recognizable by brown necrosis marks. From the degree of attack thus obtained (expressed in %), the efficacy is calculated according to the Abbott formula with reference to the degree of attack of the control. […]

Uncinula necator [5] = assay: In vivo greenhouse test against powdery mildew of grapevine (Example 10); conditions: FIG. 7
Protocol: (§4) In Vivo Greenhouse Test of a Composition Comprising Compound (I) and Compound (IIF) (Spiroxamine) Against Powdery Mildew of Grapevine (Uncinula necator):
A suspension of 60 mg comprising compound (I) in a liquid mixture consisting of 0.3 ml of a surfactant (oleate of polyoxyethylenated derivative of sorbitan) diluted to 10% in water and 60 ml of water is prepared.
An emulsifiable concentrate containing 500 g/l of spiroxamine is used.
Dilute suspensions corresponding to a spraying volume of 250 l of spraying liquid per ha are prepared from these compositions by dilution with water.
These 2 liquids are mixed together so as to obtain a compound (I)/spiroxamine ratio equal to 0.33:1:3.
Grapevine plants (Chardonnay variety) are cultivated in pots. When these plants are 2 months old, they are treated by spraying with a liquid comprising one of the compounds (I) and (IIF), either individually or as a mixture in one of the ratios indicated above.
After 24 hours, the grapevine leaves are contaminated by dusting them with powdery mildew spores (Uncinula necator) obtained from naturally contaminated leaves.
After this contamination, the treated and contaminated grapevine plants are placed for 15 days at 20° C. at a relative humidity of about 70%. […]
as §3

Uncinula necator [6] = assay: In vivo greenhouse test against powdery mildew of grapevine, read 22 days after contamination (Example 11); conditions: FIG. 8
Text: as §4
Example 10 is repeated, setting the compound (I)/spiroxamine ratio to 0.11:0.33 and 1 and observing the results 22 days after contamination.

Plasmopara viticola [7] = assay: In vivo greenhouse test of ternary composition against downy mildew of grapevine, treatment 24 h after contamination (Example 12); conditions: grapevine Chardonnay, compound (I) alone, FIG. 9
[8] = contamination 4 days after treatment

CCCOC(=O)NCCCN(C)C [propamocarb, propyl 3-(dimethylamino)propyl carbamate]
efficacy when applied alone (Plasmopara viticola [1]; under the test conditions): no efficacy
dose alone which needs to be applied to obtain 90% destruction of the parasite (Phytophthora infestans [2]): 553 mg/L

O=C([O-])c1ccccc1O.[Na+] [sodium salt of salicylic acid]
efficacy when applied alone (Phytophthora infestans [3]; under the test conditions): no efficacy

CSC1=N[C@@](C)(c2ccccc2)C(=O)N1Nc1ccccc1 [compound (I), (4S)-4-methyl-2-methylthio-4-phenyl-1-phenyl-amino-2-imidazolin-5-one]
dose alone which needs to be applied to destroy 70% of the parasite (Phytophthora infestans [3]; [8]): 36 mg/L
dose alone which needs to be applied to obtain 90% efficacy (Plasmopara viticola [1]; preventive 4 days): 8.2 mg/L
dose alone which needs to be applied to obtain 90% destruction of the parasite (Phytophthora infestans [2]): 8.7 mg/L
dose alone which needs to be applied to destroy 70% of the parasite (Phytophthora infestans [4]; [8]): 177 mg/L
efficacy when applied alone (Botrytis cinerea; grapevine leaves, under the test conditions): no efficacy
dose alone which needs to be applied to obtain 70% destruction of the parasite (Alternaria brassicae): 167 mg/L
efficacy when applied alone (Uncinula necator [5]; grapevine, under the test conditions): no efficacy
efficacy when applied alone (Uncinula necator [6]; grapevine, under the test conditions, 22 days): no efficacy
dose alone which needs to be applied to obtain 70% destruction of the parasite (Plasmopara viticola [7]): 36 mg/L

CSC(=O)c1cccc2nnsc12 [CGA 245704, S-methyl ester of 1,2,3-benzothiadiazole-7-carbothioic acid]
efficacy when applied alone (Phytophthora infestans [4]; under the test conditions): no efficacy

CCCN(CC)CC1COC2(CCC(C(C)(C)C)CC2)O1 (centres unmarked) [spiroxamine, 8-t-butyl-2-(N-ethyl-N-n-propylamino)methyl-1,4-dioxaspiro[4.5]decane]
dose alone which needs to be applied to destroy 70% of the parasite (Uncinula necator [5]; grapevine Chardonnay, read 15 days after contamination): 6.6 g/ha
dose alone which needs to be applied to destroy 70% of the parasite (Uncinula necator [6]; grapevine Chardonnay, read 22 days after contamination): 61 g/ha

Cc1cc(C2CC2)nc(Nc2ccccc2)n1 [cyprodinil, 2-phenylamino-4-cyclopropyl-6-methyl-pyrimidine]
dose alone which needs to be applied to destroy 90% of the parasite (Botrytis cinerea; grapevine Chardonnay cut leaves, contamination 24 hours after treatment): 73 mg/L
dose alone which needs to be applied to obtain 70% destruction of the parasite (Alternaria brassicae): 178 mg/L
